# Data reported in patent publication US20260137807A1, “COMPOSITIONS AND METHODS FOR DELIVERING A MACROMOLECULE TO A CELL” (AstraZeneca AB, priority 2022, published 2026).
# Entries after “also recorded” stand apart in the source; their conditions may differ.
# Experiments:
# HeLa mCherry-Gal9 cells = assay: mCherry-GAL9 recruitment assay; type: cell-based
# Source text: (§1) All compounds were subjected to a mCherry-GAL9 recruitment assay. Under normal conditions, mCherry-GAL9 is homogenously dispersed in the cytosol. When an endosomal leakage event is detected, mCherry-GAL9 translocates to the damaged endosome (Du Rietz et al. (2020) Nat. Commun. 11:1809) The resulting localization pattern of discrete puncta can be visualized and quantitated.
# (§2) HeLa and Huh7 cell lines stably expressing mCherry-GAL9 were generated as described by (bioRxiv) (Munson, M. et al. (2021) Communications Biology, 4(211): 1-14) and seeded into 384-well CellCarrier Ultra plates (PerkinElmer: 6007558) at 3000 or 3500 cells/well respectively, 16 h before experimental usage.
# (§3) Dose-response curves of select compounds were generated using an Echo 655T acoustic dispenser (Labcyte) to dispense the indicated compounds into source plates (Greiner: 781280) containing growth media. At experimental start points, media containing appropriate compounds and doses was transferred to plates using a liquid handling robot (Agilent Bravo).
# (§4) At assay endpoints, cells were washed 2× PBS at RT and fixed in 4% PFA (VWR: 9713.1000) for 15 mins/RT. Cells were washed a further 3× PBS before the addition of PBS+1 μg/ml Hoechst 33342 (ThermoFisher Scientific: H21492) for a minimum of 1 h before imaging.
# (§5) Plates were imaged using a spinning-disk confocal microscope (Yokogawa: CV7000) with a 20× objective (NA 0.75). Images were processed utilizing Columbus image-analysis software (PerkinElmer: v2.9.0) to identify and quantify cells and mCherry-GAL9 structures. The resulting data were processed and normalized in Spotfire (Tibco: v10.3) and plotted in Prism (Graphpad: v8.0.1). Image panels were assembled using the FigureJ plugin for FIJI. (Mutterer and Zinck (2013) J. Microsc. 252(1):89-91).
# (§6) Cells were subjected to a 10-point concentration dilution (0-15 μM) for 2 hours and then fixed and imaged (FIG. 3 and FIG. 4). Images were analyzed and curves were generated from both mCherry-GAL9 puncta quantitation and cell survival as determined by nuclear morphology (FIG. 5). The GAL9 recruitment response support the functional splice-switching data with SSOs, confirming the mCherry-GAL9 assay as a powerful tool for screening endosomolytic compounds and supporting the hypothesis that AZ2467 (Compound 6) and AZ4800 (Compound 2) promote SSO activity by inducing endosomal rupture. The GAL9 assay was again conducted, this time in live cells for 4 hours with select compounds for screening. Compounds were screened at 5 μM (FIG. 6-8) or 0.3125-10 μM (FIG. 35-38). FIG. 39 and FIG. 47 provide results for select compounds at various doses 0.3125-10 μM.
# Huh7 mCherry-Gal9 cells = assay: mCherry-GAL9 recruitment assay; type: cell-based
# Source text: as §1, §2, §3, §4, §5, §6
# [1] = Nanoparticle tracking analysis (NTA); type: physicochemical; conditions: 1 μm or 5 μm oligonucleotide incubated with 5 μm AZ4800 for 2 hours
# Description: Many SSO transfection reagents work through complexation or association with the SSO. A nanoparticle tracking analysis (NTA) was performed to determine whether Compound 2 induced aggregation of oligonucleotides in cell media.
# SSO was incubated in cell growth media with and without Compound 2 at 37° C. for 2 hours, mimicking the treatment plan shown in FIG. 10. Analysis was carried out with a Nanosight NS500 instrument running NTA 2.3 analytical software. A script that records 5×30 second videos in light-scatter mode was run with a camera level of 13. Analysis of the videos was then performed with screen gain set to 10 and a detection threshold at 7.
# HeLa_Luc705 cells = assay: Splice switching activity assay, 24 hr SMC treatment, Examples 4B/4D; type: cell-based
# Description: (§7) HeLa_Luc705 cells were seeded in 96-well plates at 10,000 cells per well in growth media with 2 μM Luc705-SSO or 1 μM Luc705-SSO. The various SMCs were diluted directly into prepared growth media. After 24 hr to allow adherence and SSO internalization, 10 μl of diluted SMC was added into each well at indicated concentrations. For a positive control, SSOs were complexed with Lipofectamine 2000 for 30 min at RT and cells treated with a final concentration of 200 nM. ON concentrations above 200 nM would require LF2000 to be used in excess of the cells' toxicity threshold. After 24 hr treatment, cells were lysed with 0.1% TritonX-100 (Sigma Aldrich, cat no. X100) in 1× PBS (Gibco, cat no. 10010023).
# For the detection of luciferase activity, 30 μL of cell lysate was transferred to white-walled plates. The luciferase intensity in each well was immediately measured via luminometer following auto-injection of 25 μL Luciferin substrate as per the Promega Firefly Luciferase Assay System. The timing parameters of photon measurements were optimized for this procedure.
# as §7, with “The” for “HeLa_Luc705 cells were seeded in 96-well plates at 10,000 cells per well in growth media with 2 μM Luc705-SSO or 1 μM Luc705-SSO. The”
# T-47D cells = assay: Co-delivery of Cre recombinase, in vitro editing GFP reporter; type: cell-based; conditions: for editing: 50 nM Cre
# Source text: Cre recombinase was co-administered with Compound 4 to assess improvement in editing efficiency in an in vitro reporter system in which edited cells express GFP. Total cell counts are shown as unfilled bars (FIG. 43A, left panel); viable cells are shown in light gray shaded bars (FIG. 43A, middle panel); edited cell counts are shown in green shaded bars, and edited cell percentage is shown as the dotted line (FIG. 43A, right panel).
# The media change increased cell viability, as shown by the difference between the left and right panels of FIGS. 43B and 43C. […] Greater than 80% editing was observed when Cre protein was co-administered with 2 μM or 3 μM Compound 4 in the media changed condition, and 3 μM Compound 4 in the media unchanged condition.
smiles,measurement,setting,value
COc1nn(C2CCNCC2)cc1Nc1ncc(Cl)c(-n2ccc3c(C#N)cccc32)n1 [Compound 2],relocalisation of Gal9 from cytosolic to punctate,"HeLa mCherry-Gal9 cells; 10-point dose titration, 2 hours, FIG. 3",dose-dependent manner
same,"endosomal rupture, decrease of 488-SSO puncta",HeLa mCherry-Gal9 cells; FIG. 16A,time and concentration-dependent manner
same,quantitation of GAL9 (mCherry-GAL9 puncta),HeLa mCherry-Gal9 cells; FIG. 17A,time and concentration-dependent responses
same,window in concentration between induction of endosomal rupture and cytotoxicity,"HeLa mCherry-Gal9 cells; HeLa, FIG. 5",narrow window
same,quantitation of Gal9 recruitment over time,"HeLa mCherry-Gal9 cells; HeLa, FIG. 8",time-dependent endosomal rupture
same,A488-positive structures (A488-SSO) after treatment,"HeLa mCherry-Gal9 cells; preloaded 1 μM A488-SSO, FIG. 15A",gradually disappeared over 2 hours
same,relocalisation of Gal9 from cytosolic to punctate,"Huh7 mCherry-Gal9 cells; 10-point dose titration, 2 hours, FIG. 4",dose-dependent manner
same,"Gal9 recruitment signal, puncta per relative nuclear signal","Huh7 mCherry-Gal9 cells; 60 min, Huh7",highest overall induced signal
same,"endosomal rupture, decrease of 488-SSO puncta",Huh7 mCherry-Gal9 cells; FIG. 16B,time and concentration-dependent manner
same,quantitation of GAL9 (mCherry-GAL9 puncta),Huh7 mCherry-Gal9 cells; FIG. 17B,time and concentration-dependent responses
same,window in concentration between induction of endosomal rupture and cytotoxicity,"Huh7 mCherry-Gal9 cells; Huh7, FIG. 5",narrow window
same,quantitation of Gal9 recruitment over time,"Huh7 mCherry-Gal9 cells; Huh7, FIG. 7",time-dependent endosomal rupture
same,A488-positive structures (A488-SSO) after treatment,"Huh7 mCherry-Gal9 cells; preloaded 1 μM A488-SSO, FIG. 15B",gradually disappeared over 2 hours
same,particle size profile of oligonucleotide in cell growth media,[1],No significant differences in particle size; also recorded: no significant changes in particle size profile
same,increase in SSO activity,"HeLa_Luc705 cells; 2 μM Luc 705 SSO, FIG. 26",induced an increase in SSO activity
COc1nn(C2CCNCC2)cc1Nc1ncc(F)c(-n2ccc3c(C#N)cccc32)n1 [Compound 4],editing efficiency,"T-47D cells; 50 nM Cre protein, 0, 1, 2 or 3 μM compound, FIG. 43B",improved editing efficiency in T-47D cells in a dose-dependent manner
same,editing,"T-47D cells; 2 μM compound, media changed after 2 hours",Greater than 80%
same,editing,"T-47D cells; 3 μM compound, media changed after 2 hours",Greater than 80%
same,editing,"T-47D cells; 3 μM compound, media unchanged",Greater than 80%
same,"GAL9 response, rank among exemplified compounds","HeLa mCherry-Gal9 cells; doses 1.25-5 μM, 1, 2, 16 hours, FIG. 34",most potent response
same,"GAL9 response, rank","Huh7 mCherry-Gal9 cells; 0.25 to 4 hours, 0.31 to 10 μM, FIG. 40",most potent
same,dose from which GAL9+ responses are seen,"Huh7 mCherry-Gal9 cells; after 15 mins, FIG. 40",≥ 1.25 µM
same,"GAL9 response, rank among exemplified compounds","Huh7 mCherry-Gal9 cells; doses 1.25-5 μM, 1, 2, 16 hours, FIG. 33",most potent response
same,increase in SSO activity,"HeLa_Luc705 cells; 2 μM Luc 705 SSO, FIG. 24",increase in SSO activity
same,increase in SSO activity,"HeLa_Luc705 cells; 2 μM Luc 705 SSO, FIG. 26",induced an increase in SSO activity
same,increase in SSO activity,"HeLa_Luc705 cells; 2 μM SSO, FIG. 23A",increase in SSO activity
same,activity of the oligo as compared to oligo only,"HeLa_Luc705 cells; 2.5 μM compound, 1 μM SSO, FIG. 27",enhanced activity of the oligo as compared to oligo only
same,increase in SSO activity over 1 μM naked SSO,"HeLa_Luc705 cells; higher concentrations of AZ3327, FIG. 23B",increase in SSO activity
